According to patent US20030086972A1, “Hydrogel-driven drug dosage form” (priority 2000, published 2003):
In brackets after ≈: the same amount, converted by molar mass. Structures can show the parent of a compound that is named as a salt. Where two headings read alike, the source gives them in different places.

What was measured:
[1] = Aqueous solubility of the drug
[2] = cited from earlier work

Question: Which solubility ([1]; pH 4) does the source give for “4-[3-[4-(2-methylimidazol-1 -yl) phenylthio]phenyl]-3,4,5,6-tetrahydro-2H-pyran-4-carboxamide hemifumarate [Drug 3]” here?
Answer: Its solubility is 3.7 mgA/mL.

Question: With `CN[C@H]1CC[C@@H](c2ccc(Cl)c(Cl)c2)c2ccccc21` [Drug 2, sertraline HCl] as the compound, how does the solubility ([1]; aqueous, pH 7, aqueous buffer) read?
Answer: The solubility was 200 µg/mL.

Question: Which solubility ([1]; aqueous, pH 7.6, aqueous buffer) does the source give for `COc1cc2nc(N3CCCN(C(=O)N4CCOCC4)CC3)cc(N)c2c(-c2ccc(F)cc2)c1OC` [Drug 5, 4-amino-5-(4-fluorophenyl)-6,7-dimethoxy-2-[4-(morpholinocarbonyl)perhydro-1,4-diazepin-1-yl]quinoline] here?
Answer: Its solubility is 400 µg/mL (≈ 785 µM).

Question: For `CN[C@H]1CC[C@@H](c2ccc(Cl)c(Cl)c2)c2ccccc21` [sertraline], which “solubility (in words)” value ([2]; low pH) is on record?
Answer: The value was “moderate solubility”.

Question: And the “solubility (in words)” value ([2]; pH of about 7.5)?
Answer: The value was “extremely low solubility”.

Question: And the “solubility (in words)” value ([2]; pH values above 5)?
Answer: Its value is “low solubility”.
